Experimental data taken from patent US20250084079A1, “COMPOSITIONS AND METHODS FOR INHIBITION OF RAS” (TheRas, Inc., priority 2022, published 2025).
Where two headings read alike, the source gives them in different places.

What was measured:
[1] = molecular target: T1, Avi-KRAS G12D (1-169) GppNHp/RAF1 RBD-3xFLAG (52-151) (Homo sapiens, UniProt P01116, G12D); experiment: RAS-effector PPI HTRF disruption assay, Raf1-GppNHp-KRAS G12D; type: biochemical
T1 construct: 100 nM Avi-KRAS G12D (1-169) GppNHp
T1 sequence (P01116 1-169 isoform P01116-2 G12D): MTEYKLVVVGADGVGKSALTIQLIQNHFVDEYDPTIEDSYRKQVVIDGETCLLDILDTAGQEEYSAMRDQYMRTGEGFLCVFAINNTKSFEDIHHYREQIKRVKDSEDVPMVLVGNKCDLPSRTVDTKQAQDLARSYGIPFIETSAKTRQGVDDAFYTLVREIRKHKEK
Method: (§1) A protein:protein interaction (PPI) Homogeneous Time Resolved Fluorescence (HTRF) assay was used to determine the effectiveness of compounds of the present disclosure in disrupting KRAS protein and effector (RAF1 or PIK3 CA) binding.
(§2) The HTRF assay used the following reagents and proteins: (i) 375 nM Avi-KRAS G12D/Q25A (1-169) GppNHp/3×FLAG-PI3KCA (157-299); (ii) 100 nM Avi-KRAS G12D (1-169) GppNHp/RAF1 RBD-3×FLAG (52-151); (iii) 50 nM Avi-KRAS G12V (1-169) GppNHp/RAF1 RBD-3×FLAG (52-151); (iv) 50 nM Avi-KRAS WT (1-169) GppNHp/RAF1 RBD-3×FLAG (52-151); and (v) 35 nM Avi-PI3K RBD CA-3×FLAG; Assay Buffer: 50 mM Tris pH 7.5, 100 mM NaCl, 5 mM MgCl2, 0.1% BSA, 0.01% Tween, 1 mM TCEP, 10% DMSO; Bead Buffer: 50 mM Tris pH 7.5, 0.01% Tween 20; Assay volume: 20 μL (384 well plate-low volume format); and Compound titration: 100-0.02 μM, 3× dilution series.
(§3) The HTRF assay employed the following protocol:
(§4) Compounds were dispensed in assay plate (384-well, Grenier Bione #784075) using Echo (model 555) with dose response settings: 200 nL final volume, titration from 100 μM as a 10-point dilution series. Protein mix was prepared in assay buffer, and dispensed on plates, 10 μL per well, then incubated for 1 h at room temperature, with 700 rpm shaking. Reagents mix was prepared and dispensed on plates, 10 μL per well, then incubated for 1 h at room temperature, with 700 rpm shaking.
(§5) Plates were analyzed on an Envision plate reader using the following setting: Excitation 320 nm, Bandwidth […]; Emission 615 nm, Bandwidth […], Gain 100%, Flashes 100, Lag 60 μs. Data was reported as percentage of activity, with DMSO as 100%. Data was plotted and analyzed using Prism 8. The SPR Kd, biochemical Raf1-KRAS G12D/G12V/WT-GppNHP and PI3KCA-KRAS G12D/Q25A-GppNHp disruption assay IC50 of selected compounds described herein are shown in Table 4.

[2] = molecular target: T2, Avi-KRAS G12D/Q25A (1-169) GppNHp/3xFLAG-PI3KCA (157-299) (Homo sapiens, UniProt P01116, G12D/Q25A); experiment: RAS-effector PPI HTRF disruption assay, PI3KCA-GppNHp-KRAS G12D/Q25A; type: biochemical
T2 construct: 375 nM Avi-KRAS G12D/Q25A (1-169) GppNHp
T2 sequence (P01116 1-169 isoform P01116-2 G12D/Q25A): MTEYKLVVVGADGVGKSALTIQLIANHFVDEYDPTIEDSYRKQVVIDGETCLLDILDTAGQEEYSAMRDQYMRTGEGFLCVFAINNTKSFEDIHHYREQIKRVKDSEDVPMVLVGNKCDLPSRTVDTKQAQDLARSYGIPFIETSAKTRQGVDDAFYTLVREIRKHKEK
Method: as §1, §2, §3, §4, §5

[3] = molecular target: T3, Avi-KRAS G12V (1-169) GppNHp/RAF1 RBD-3xFLAG (52-151) (Homo sapiens, UniProt P01116, G12V); experiment: RAS-effector PPI HTRF disruption assay, Raf1-GppNHp-KRAS G12V; type: biochemical
T3 construct: 50 nM Avi-KRAS G12V (1-169) GppNHp
T3 sequence (P01116 1-169 isoform P01116-2 G12V): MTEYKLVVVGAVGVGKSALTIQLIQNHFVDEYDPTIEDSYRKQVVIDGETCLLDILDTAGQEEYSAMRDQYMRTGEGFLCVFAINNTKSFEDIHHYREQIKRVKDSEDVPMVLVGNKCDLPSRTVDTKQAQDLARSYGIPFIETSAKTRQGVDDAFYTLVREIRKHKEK
Method: as §1, §2, §3, §4, §5

[4] = molecular target: T4, Avi-KRAS WT (1-169) GppNHp/RAF1 RBD-3xFLAG (52-151) (Homo sapiens, UniProt P01116); experiment: RAS-effector PPI HTRF disruption assay, Raf1-GppNHp-KRAS WT; type: biochemical
T4 construct: 50 nM Avi-KRAS WT (1-169) GppNHp
T4 sequence (P01116 1-169 isoform P01116-2): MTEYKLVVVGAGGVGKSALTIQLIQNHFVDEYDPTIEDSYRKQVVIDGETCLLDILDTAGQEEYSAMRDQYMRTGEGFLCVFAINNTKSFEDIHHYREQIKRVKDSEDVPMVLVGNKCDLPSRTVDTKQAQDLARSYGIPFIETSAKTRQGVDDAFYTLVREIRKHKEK
Method: as §1, §2, §3, §4, §5

[5] = tested on: pERK in GP2d cells (KRAS G12D); experiment: Cell-based pERK HTRF assay in GP2d cell; settings: 60 min incubation
Method: A pERK assay (Perkin Elmer) was used to determine the effectiveness of compounds in disrupting KRAS G12D protein/effector signaling in cells.
On Day 1, cells (GP2d) were seeded into 96-well plates at 3×10^4 cells/well in 80 μL complete growth media (DMEM, 10% FBS).
On Day 2, cells were treated with compounds at 0.25% DMSO. The source plate was created with compounds diluted in media at 5-fold the final assay concentration. The compounds were run in a 9-point concentration curve starting at 1 μM, with a half-log dilution between concentrations. 20 μL was transferred onto the cell plates (final volume in wells was 100 μL). Plates were harvested after 60 min incubation by aspirating media and adding kit-supplied 1× supplemented lysis buffer to all wells (50 μL per well). Plates were then placed on a plate shaker and incubated at 850 rpm for an additional 30 min.
Antibody mixture solution is prepared by diluting aliquoted d2 and Eu Cryptate antibodies 1:20 in kit supplied detection buffer, mix the diluted antibodies solutions (1:1 v:v). 4 μL of this solution is then added to a 384-well detection plate (Perkin Elmer; 6008230).
Samples were homogenized by pipetting up and down and then transferred (16 μL of cell lysates) from the 96-well cell culture plate to two wells of the HTRF 384-well detection plate containing the antibody solution. Plates were centrifuged (524 g for 1 min) and allowed to incubate between 4 and 24 h at room temperature. Maximum signal is reached after 4 h incubation time and remains stable over a period of 24 hours. Therefore, readings can be made between 4 and 24 h of incubation. Plates were centrifuged again (524 g for Imin), then analyzed on the EnVision plate reader using the following settings: Excitation 320 nm, Bandwidth 75 nm; Emission 615 nm, Bandwidth 85 nm; Gain 100%; Flashes 100; Lag 60 μs.

Structure (SMILES) | IC50 [1] [µM] | IC50 [2] [µM] | IC50 [3] [µM] | IC50 [4] [µM] | IC50 ([5]; read-out: pERK-Gp2D-1 hr) [µM] | IC50 ([5]; GP2d, 1 h) [µM]
CN1CCC[C@H]1COc1nc(OC2CNC2)c2cc(Cl)c(-c3ccc(F)c4sc(N)nc34)c(F)c2n1 [Compound 3] | > 10 |  |  |  |  | 
C[C@@H]1NCC[C@H]1Oc1nc(OC[C@@]23CCCN2C[C@H](F)C3)nc2c(F)c(-c3ccc(F)c4sc(N)nc34)c(C(F)(F)F)cc12 (atropisomer, axis not shown) [Compound 9] | > 10 | > 10 | > 10 | > 10 |  | 
N#Cc1c(N)sc2c(F)ccc(-c3c(C(F)(F)F)cc4c(O[C@H]5CCC6(CNC6)C5)nc(OC[C@@]56CCCN5C[C@H](F)C6)nc4c3F)c12 (atropisomer, axis not shown) [Compound 79] | ≤ 0.1 |  | ≤ 0.1 | ≤ 0.1 | ≤ 0.1 | 
Nc1nc2c(-c3ccc4c(O[C@H]5CNC[C@H]5F)nc(OC[C@@]56CCCN5C[C@H](F)C6)nc4c3F)ccc(F)c2s1 [Compound 82] | > 10 |  | > 10 | > 10 |  | > 1
N#Cc1c(N)sc2c(F)ccc(-c3c(C(F)(F)F)cc4c(O[C@@H]5CCC6(CNC6)C5)nc(OC[C@@]56CCCN5C[C@H](F)C6)nc4c3F)c12 (atropisomer, axis not shown) [Compound 85] | ≤ 0.1 |  | 0.1 to 1 | ≤ 0.1 |  | 0.1 to 1
Nc1nc2c(-c3c(C(F)(F)F)cc4c(O[C@@H]5CCNC5)nc(OC[C@@]56CCCN5C[C@H](F)C6)nc4c3F)ccc(F)c2s1 (atropisomer, axis not shown) [Compound 4] | 0.1 to 1 | 0.1 to 1 | 1 to 10 | 1 to 10 |  | 
COC[C@H]1NCC[C@H]1Oc1nc(OC[C@@]23CCCN2C[C@H](F)C3)nc2c(F)c(-c3ccc(F)c4sc(N)c(C#N)c34)ccc12 [Compound 91] | > 10 |  | > 10 | > 10 |  | 0.1 to 1
COC[C@H]1C[C@@H](Oc2nc(OC[C@@]34CCCN3C[C@H](F)C4)nc3c(F)c(-c4ccc(F)c5sc(N)c(C#N)c45)c(C(F)(F)F)cc23)CN1 (atropisomer, axis not shown) [Compound 80] | ≤ 0.1 |  | 0.1 to 1 | 0.1 to 1 | ≤ 0.1 | 
Nc1nc2c(-c3c(C(F)(F)F)cc4c(O[C@H]5C[C@H]6CC[C@@H](C5)N6)nc(OCC56CCCN5CCC6)nc4c3F)ccc(F)c2s1 (atropisomer, axis not shown) [Compound 6] | 1 to 10 | 1 to 10 | > 10 | 1 to 10 |  | 
COC[C@H]1C[C@@H](Oc2nc(OC[C@@]34CCCN3C[C@H](F)C4)nc3c(F)c(-c4ccc(F)c5sc(N)c(C#N)c45)c(C(F)(F)F)cc23)CN1 (atropisomer, axis not shown) [Compound 81] | > 10 |  | > 10 | > 10 | > 1 | 
N#Cc1c(N)sc2c(F)ccc(-c3c(C(F)(F)F)cc4c(OC5CC6(CNC6)C5)nc(OC[C@@]56CCCN5C[C@H](F)C6)nc4c3F)c12 [Compound 43] | 0.1 to 1 |  | 0.1 to 1 | 0.1 to 1 |  | 0.1 to 1
N#Cc1c(N)sc2c(F)ccc(-c3cc4nc(OC[C@@]56CCCN5C[C@H](F)C6)nc(O[C@@H]5CCNC5)c4nc3C(F)(F)F)c12 [Compound 93, 2-amino-7-fluoro-4-(2-(((2R,7aS)-2-fluorotetrahydro-1H-pyrrolizin-7a(5H)-yl)methoxy)-4-(((R)-pyrrolidin-3-yl)oxy)-6-(trifluoromethyl)pyrido[3,2-d]pyrimidin-7-yl)benzo[b]thiophene-3-carbonitrile] | 1 to 10 |  | 1 to 10 | 1 to 10 |  | ≤ 0.1
C[C@@H]1C[C@@H](Oc2nc(OC[C@@]34CCCN3C[C@H](F)C4)nc3cc(-c4ccc(F)c5sc(N)c(C#N)c45)c(C(F)(F)F)nc23)CN1 [Compound 94] | 1 to 10 |  | 1 to 10 | 1 to 10 |  | ≤ 0.1
N#Cc1c(N)sc2c(F)ccc(-c3c(C(F)(F)F)cc4c(OC5CCC6(CC5)CNC6)nc(OC[C@@]56CCCN5C[C@H](F)C6)nc4c3F)c12 [Compound 40] | ≤ 0.1 |  | 0.1 to 1 | ≤ 0.1 |  | 0.1 to 1
N#Cc1c(-c2ccc(F)c3sc(N)c(C#N)c23)c(Cl)cc2c(O[C@H]3CNC[C@H]3F)nc(OC[C@@]34CCCN3C[C@H](F)C4)nc12 [Compound 92] | 1 to 10 |  | > 10 | 1 to 10 |  | 0.1 to 1
C[C@H]1CNCC1Oc1nc(OC[C@@]23CCCN2C[C@H](F)C3)nc2c(F)c(-c3ccc(F)c4sc(N)nc34)c(C(F)(F)F)cc12 (some centres unmarked) [Compound 1] | 1 to 10 |  |  |  |  | 
COC[C@H]1NCC[C@H]1Oc1nc(OC[C@@]23CCCN2C[C@H](F)C3)nc2c(F)c(-c3ccc(F)c4sc(N)c(C#N)c34)c(C(F)(F)F)cc12 [Compound 90] | 0.1 to 1 |  | 1 to 10 | 0.1 to 1 |  | ≤ 0.1
C[C@H]1NCC[C@H]1Oc1nc(OC[C@@]23CCCN2C[C@H](F)C3)nc2c(F)c(-c3ccc(F)c4sc(N)nc34)ccc12 [Compound 83] | > 10 |  | > 10 | > 10 |  | > 1
C[C@H]1NCC[C@H]1Oc1nc(OC[C@@]23CCCN2C[C@H](F)C3)nc2cc(-c3ccc(F)c4sc(N)c(C#N)c34)c(C(F)(F)F)nc12 [Compound 96] | 0.1 to 1 |  | 1 to 10 | 0.1 to 1 |  | ≤ 0.1
COC[C@@H]1C[C@@H](Oc2nc(OC[C@@]34CCCN3C[C@H](F)C4)nc3c(F)c(-c4ccc(F)c5sc(N)c(C#N)c45)c(C(F)(F)F)cc23)CN1 (atropisomer, axis not shown) [Compound 84] | ≤ 0.1 |  | 0.1 to 1 | 0.1 to 1 |  | ≤ 0.1
Nc1nc2c(-c3c(C(F)(F)F)cc4c(O[C@@H]5CCNC5)nc(OCC56CCCN5C[C@H](F)C6)nc4c3F)ccc(F)c2s1 (some centres unmarked) [Compound 4] |  |  |  |  |  | ≤ 0.1
C[C@@H]1C[C@@H](Oc2nc(OC[C@@]34CCCN3C[C@H](F)C4)nc3cc(-c4ccc(F)c5sc(N)c(C#N)c45)c(C(F)(F)F)nc23)CN1 [Compound 95] | > 10 |  | > 10 | > 10 | 0.1 to 1 | 
N#Cc1c(N)sc2c(F)ccc(-c3c(C(F)(F)F)cc4c(O[C@H]5CCC6(CNC6)C5)nc(OC[C@@]56CCCN5C[C@H](F)C6)nc4c3F)c12 (atropisomer, axis not shown) [Compound 78] | 1 to 10 |  | > 10 | 1 to 10 | > 1 | 
